This note sets out measurements from PubChem BioAssay (NCI).

Test systems include UACC-257 melanoma; LOX IMVI melanoma; HCC-2998 colon; EKVX NSCLC; RPMI-8226 leukemia; KM12 colon; HOP-92 NSCLC; HS 578T breast; MDA-MB-435; T-47D breast.
Holding throughout (test): NCI-60 cell line screen, 48 h

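Exposure lasted 48 hours, with cells grown in 96-well plates and compounds tested at five concentrations. GI50 is the concentration that inhibits growth by half. TGI: concentration producing complete growth inhibition.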

Regarding `O=C1N[C@@H](O)[C@@H]2ON=C(c3ccccc3)[C@H]12`, the TGI with UACC-257 melanoma, with LOX IMVI melanoma, with HCC-2998 colon, with EKVX NSCLC, with RPMI-8226 leukemia and in the experiment with KM12 colon was > 100 µM in each case. Moreover, in the experiment with HOP-92 NSCLC, the TGI was > 100 µM.
Regarding `COc1ccc2c(c1)C=CC(C#N)N2C(=O)c1ccccc1` (configuration not stated), the GI50 in the experiment on UACC-257 melanoma is 45.2 µM; in the experiment with LOX IMVI melanoma it was < 0.01 µM; in the experiment on HCC-2998 colon it was 0.0129 µM; in the experiment on HS 578T breast it was < 0.01 µM; with EKVX NSCLC, < 0.01 µM; with RPMI-8226 leukemia it was < 0.01 µM. Moreover, in the experiment on KM12 colon, the GI50 is < 0.01 µM. The TGI in the experiment with UACC-257 melanoma, with LOX IMVI melanoma, in the experiment on HCC-2998 colon, in the experiment on HS 578T breast, with EKVX NSCLC and in the experiment with RPMI-8226 leukemia was > 100 µM in each case. The TGI is > 100 µM in the experiment on KM12 colon and 45.9 µM with HOP-92 NSCLC.
On to `CN1CCN(C)C1c1cccc(C2N(C)CCN2C)c1`, for which the TGI in the experiment with LOX IMVI melanoma, with HCC-2998 colon, in the experiment with RPMI-8226 leukemia, with KM12 colon and with HOP-92 NSCLC was > 100 µM in each case.
In the case of `O=C1c2ccccc2-c2cccc3ccc(Cc4ccccc4)c1c23`, the TGI in the experiment with UACC-257 melanoma, with HCC-2998 colon, in the experiment with EKVX NSCLC, with RPMI-8226 leukemia, with KM12 colon and in the experiment with HOP-92 NSCLC was > 100 µM in each case.
Regarding `O=c1c2ccccc2c2c3c1cccc3c1cccc3c(=O)c4ccccc4c2c31`, the TGI with UACC-257 melanoma, in the experiment on LOX IMVI melanoma, in the experiment with HCC-2998 colon, in the experiment on EKVX NSCLC, in the experiment with KM12 colon and with HOP-92 NSCLC was > 100 µM throughout.
`c1ccc2c(c1)N=C(c1cccc3ccccc13)CC(c1cccc3ccccc13)S2` (configuration not stated): the TGI in the experiment on UACC-257 melanoma stood at 31.8 µM; in the experiment with LOX IMVI melanoma it was 11.4 µM; with HCC-2998 colon, 11.2 µM; in the experiment with EKVX NSCLC it was 28.7 µM; with RPMI-8226 leukemia, 4.85 µM; in the experiment on KM12 colon, 9.6 µM.
For `CC(=O)c1c(C)n([O-])c2cc(C)c(C)cc2[n+]1=O`, the TGI with UACC-257 melanoma, with LOX IMVI melanoma, in the experiment with HCC-2998 colon, in the experiment with EKVX NSCLC, in the experiment on RPMI-8226 leukemia and in the experiment with KM12 colon was > 100 µM in each case.
Take `N#Cc1c(N)c(C(=O)O)nn(-c2cccc(C(F)(F)F)c2)c1=O`: the TGI in the experiment on LOX IMVI melanoma, in the experiment with EKVX NSCLC, with RPMI-8226 leukemia, with KM12 colon and in the experiment on HOP-92 NSCLC was > 100 µM in each case.
Regarding `O=C(Nc1ccc(S(=O)(=O)N[C@@H](C(=O)O)c2ccccc2)cc1)c1ccc(F)cc1`, the TGI in the experiment with UACC-257 melanoma, in the experiment on LOX IMVI melanoma, in the experiment with HCC-2998 colon, with EKVX NSCLC, in the experiment on RPMI-8226 leukemia and with KM12 colon was > 100 µM each time. In addition, in the experiment on HOP-92 NSCLC, the TGI is > 100 µM.
On to `COc1cc(/C=C\c2ccc(O)cc2)cc(OC)c1OC`, for which the TGI in the experiment with UACC-257 melanoma was > 100 µM; with LOX IMVI melanoma, > 100 µM; with HCC-2998 colon, > 79 µM; in the experiment on EKVX NSCLC, > 100 µM; in the experiment with RPMI-8226 leukemia, 35.3 µM; in the experiment on KM12 colon, > 100 µM.
For `NC1=NC(=O)C(CC(=O)Nc2ccc([N+](=O)[O-])cc2[N+](=O)[O-])S1` (configuration not stated), the TGI with UACC-257 melanoma, in the experiment with LOX IMVI melanoma, with HCC-2998 colon, with EKVX NSCLC, in the experiment with RPMI-8226 leukemia and in the experiment with KM12 colon was > 100 µM throughout. The TGI with HOP-92 NSCLC turned out to be 89.4 µM.
In the case of `CC(=O)OCCOCBr`, the TGI with UACC-257 melanoma, with LOX IMVI melanoma, in the experiment with EKVX NSCLC, with RPMI-8226 leukemia, in the experiment on KM12 colon and with HOP-92 NSCLC was > 100 µM each time.
As to `CC1=Nc2c(ccc3c2C(=O)c2ccccc2C3=O)NC(c2ccncc2)C1` (configuration not stated), the GI50 in the experiment with UACC-257 melanoma is > 100 µM; with HCC-2998 colon it was > 100 µM; with EKVX NSCLC it was > 100 µM; in the experiment with RPMI-8226 leukemia, 89.9 µM; with HOP-92 NSCLC, > 100 µM. In addition, the TGI in the experiment with UACC-257 melanoma, in the experiment with LOX IMVI melanoma, in the experiment with HCC-2998 colon, in the experiment with EKVX NSCLC, in the experiment on RPMI-8226 leukemia and in the experiment on KM12 colon was > 100 µM each time. In the experiment with HOP-92 NSCLC, the TGI was > 100 µM.
On to `COc1ccc(C(=O)C(C(=O)CCC(=O)Nc2cccc(C(F)(F)F)c2)c2ccccc2)cc1` (configuration not stated), for which the TGI with UACC-257 melanoma, in the experiment with HCC-2998 colon, with EKVX NSCLC, in the experiment on RPMI-8226 leukemia, in the experiment with KM12 colon and with HOP-92 NSCLC was > 100 µM in each case.
Regarding `Cc1sc(C)c(-c2ccc(CO)o2)c1-c1ccc(CO)o1`, the GI50 in the experiment with LOX IMVI melanoma was 94.3 µM; in the experiment with HCC-2998 colon it was > 83.9 µM; with HS 578T breast, 43 µM; in the experiment on RPMI-8226 leukemia it was 13.5 µM; in the experiment with KM12 colon, > 83.5 µM; with HOP-92 NSCLC it was 7.01 µM. Further, the GI50 in the experiment on MDA-MB-435 was > 100 µM. For the same molecule, the TGI with LOX IMVI melanoma, in the experiment on HCC-2998 colon, with HS 578T breast, with RPMI-8226 leukemia, in the experiment with KM12 colon and in the experiment with HOP-92 NSCLC was > 100 µM each time. Further, the TGI with MDA-MB-435 is > 100 µM.
Take `CCCSc1cc(Cl)nc(N)n1`: the GI50 with UACC-257 melanoma, in the experiment with LOX IMVI melanoma, with HCC-2998 colon, in the experiment with EKVX NSCLC, with RPMI-8226 leukemia and in the experiment with T-47D breast was > 100 µM in each case. The results for the GI50 in the experiment on KM12 colon, with HOP-92 NSCLC and with MDA-MB-435 were > 100 µM, 14.8 µM and > 100 µM, respectively. In addition, the TGI in the experiment with UACC-257 melanoma, in the experiment with LOX IMVI melanoma, in the experiment on HCC-2998 colon, in the experiment on EKVX NSCLC, in the experiment with RPMI-8226 leukemia and in the experiment on T-47D breast was > 100 µM in each case. In addition, the TGI in the experiment with KM12 colon, with HOP-92 NSCLC and with MDA-MB-435 was > 100 µM throughout.
